Where “and” joins values, the source holds several entries; their conditions need not be identical. Identical values can stand only once.
Tests used:
QSG7701 hepatocyte line = assay: Hepatocyte toxicity test (MTT); format: cell-based, human
Method: One or two days later, when the cell density meet the requirements of passage (the cell growth rate reaches 80-90%), the cells were washed 1 to 2 times with PBS, and then PBS was removed and 1 mL trypsin was added to completely cover the surface of the cells for 1 to 2 minutes, followed by observing under an inverted microscope. When more than 90% of the cells have become large and round and could be shaken gently to remove a little, complete medium (DMEM medium:FBS:antibiotic=100:10:1) was immediately added to stop digestion. The cells were blow and separated, transferred to a 15 mL centrifuge tube, which was centrifuged at 1000 rpm for 5 min at room temperature, then the supernatant was removed. The cells were transferred to a […] petri dish, 5 to 10 ml fresh complete medium was added for further culture. Culture medium was changed after 2-3 days or subcultured in a ratio of 1:2 and 1:3.
2) Cryopreservation: when the cells were in the logarithmic growth phase and the growth state was good, cryopreservation was selected and a cryopreservation solution (DMEM:FBS:DMSO=6:3:1) was prepared as above, the cells were collected after stopping digestion and centrifuging in a centrifuge tube. The cells were suspended in the cryopreservation solution, the cell concentration (lx 10^6/mL to 10×10^6/mL) were adjusted and then the cells were divided into cryopreservation tubes, the cell type, date, cryopreserved person, and passage times were recorded. The tubes were placed in a gradient freezer box in a −80° C. freezer and transferred to a liquid nitrogen tank for storage the next day.
3) Cell recovery: a cryovial containing QSG7701 was taken out from the liquid nitrogen tank and put in a 37° C. water bath for 1 to 2 minutes and shaken quickly to thaw. The thawed cell fluid was transferred to a 15 mL centrifuge tube, centrifuged at 1000 rpm for 5 min at room temperature, then the supernatant was removed, and 5 to 10 mL fresh complete culture medium was added into it, the cell type, date, and the name of the culture person were recorded, the cells were cultured in a 37° C. incubator with 5% CO2. […]
4) Finally, the 96-well plate was taken out, the medium was removed, and 100 μl DMSO was added to the plate, shaken horizontally and mixed for 2-3 minutes to fully dissolve the crystals, and the OD value was read at the detection line of 595 nm with a microplate reader.
Origin 9.0 software was used for data mapping, and measurement data were expressed as mean±standard deviation (±sd); SPSS14.0 statistical software was used for data statistics, and univariate analysis was used.

[1] = Pharmacokinetics study, Mn^2+ in whole blood by ICP-MS; format: in vivo; conditions: SD rats, caudal vein 0.1 mmol/kg, non-compartment model
Method: Totally 8 SD rats, 3 female rats and 5 male rats, weighed 220 to 240 g, were anesthetized by intraperitoneal injection of 3% pentobarbital sodium (50 mg/kg) and fixed in supine position, followed by removing neck hair and disinfecting routinely for later use.
Catheterization of left carotid artery comprises steps as follows: making a 20 mm longitudinal incision from the 3 mm left side of the median cervical line (the line from the sternum to the mandible) and 7 mm above the sternum; dissecting the skin to expose the subcutaneous tissue, and performing a blunt layer-by-layer dissection until the carotid artery was visualized; separating […] from its accompanied veins by blunt dissection; ligating distal portion and proximal portion of the heart respectively, wherein the distance between the nodes was 2.5-3.5 cm; inserting an indwelling needle into the artery near the node at the distal portion of the heart and fixing with a hemostatic clip, taking the needle out and releasing the node at the proximal portion of the heart; and injecting heparin lithium (150 μg/kg) to perform systemic heparinization in body.
Caudal vein was rapidly injected (<5s) with KBR0826 solution (0.05 mmol/mL) at a dose of 0.1 mmol/kg. Before injection and within 1 min, 2 min, 3 min, 5 min, 8 min, 13 min, 20 min, 30 min, and 50 min after the injection, 0.1 mL of carotid blood was respectively collected and placed in a 0.5 mL EP tube and stored at −20° C.
ICP-MS was configured with a power of 1150 W, a flow rate of argon for atomization gas of 0.95 L·min^−1, a flow rate of argon for auxiliary gas of 1.2 L·min^−1, a flow rate of argon for plasma gas of 18 L·min^−1, pump speed of 20 r·min^−1, an analytic mode being standard mode, repetition sampling in triple.
A set of standard solution was prepared with standard reagents (PerkinElmer, […] (1000 ppb): Ag, Al, As, Cs, Cu, Sr, Se, Mn, etc.) at different concentrations, i.e., at 1.0 ppb, 10 ppb, 50 ppb, 100 ppb, 200 ppb and 1000 ppb, to establish a standard curve (as shown in FIG. 3), and R^2 for the linear equation was >0.9999.
20 μL of sample (whole blood) was collected and diluted to 6 to 10 mL with 1% HNO3, such that the concentration of Mn^2+ ranged from 1 ppb to 100 ppb; sample IDs were generated and then the samples were measured, and Mn^2+ concentrations of the sample solutions were calculated according to the response intensity and the standard curve.
PKSolver 2.0 was used for calculating relevant pharmacokinetic parameters.

For `O=C([O-])CN(CP(=O)([O-])O)C1CCCCC1N(CC(=O)[O-])CP(=O)([O-])O.[Mn+2].[Na+].[Na+]` (stereo not drawn) [KBR0826], the “survival rate of the QSG7701 hepatocyte line” value (shortened to “survival rate”) (QSG7701 hepatocyte line; 0.02 mmol/L, 0.1 mmol/L or 0.5 mmol/L, each detection time point (6 h, 12 h, 24 h, 48 h), MTT, OD 595 nm) was “does not decrease significantly”, the “survival rate” value (QSG7701 hepatocyte line; 2.5 mmol/L, 24 h and 48 h, p<0.05) was “decrease significantly” and the “survival rate” value (QSG7701 hepatocyte line; 12.5 mmol/L, at 12 h, p<0.05) was “decreases significantly”. For the same molecule, the “inhibitory effect on the proliferation of QSG7701 hepatocyte line” value (QSG7701 hepatocyte line; within 24 hours, 25 times of the clinical dose (2.5 mmol/L)) was “non-obvious inhibitory effect”, the AUC0-inf [1] was 734.55 ± 333.06 mg·min/L and the AUC0-t [1] was 712.59 ± 325.70 mg·min/L. For the same molecule, the AUMC0-inf [1] was 8419.63 ± 9547.34 mg/L · min^2, the C0 [1] was 616.61 ± 568.85 µg/mL and the MRT0-inf [1] was 11.26 ± 8.93 min. The V [1] was 0.38 ± 0.45 L/kg, the Vss [1] was 0.17 ± 0.30 L/kg and the “t1/2 (plasma half-life)” value [1] was 23 min and 22.87 ± 13.04 min.
